Values of other authors in paper PMC5563391 (Investigational new drugs, 2015).

System: patients with CML or Ph+ ALL
Conditions: phase 1 study; cited from earlier work

## CO[C@@H](C(=O)N1Cc2n[nH]c(NC(=O)c3ccc(N4CCN(C)CC4)cc3)c2C1)c1ccccc1 [danusertib]
  patients with responses: 6 of 23
